# Laboratory results reported in patent US20250205162A1, “SYSTEMS AND METHODS FOR SMALL MOLECULE ENCAPSULATION” (Tecton Group, LLC, priority 2022, published 2025).
# What was measured:
# pH in water = type: physicochemical; settings: aqueous solution
# [1] = humans; cited from earlier work
Molecule,pH in water (pH in water),safe daily use [1]
"C[C@@H](O)CC(=O)OC(CO)CO [KM, 1,3 Dihydroxypropan-2-yl (R)-3-hydroxybutanoate]",4.5,
"Cn1c(=O)c2c(n(C)c1=O)n(C)c(=O)n2C [TH, theacrine]",,up to 300 mg/day
nicotinamide riboside [NR],4.0,
